The subject of series [1] is CBA × DBA mice. The experiment in a line: Embryo survival in CBA × DBA mice, i.p. dosing during gestation. It is filed as in vivo. As to conditions: for % Embryo Survival: assessed day 12. The protocol: Female mice of the CBA strain (obtained from Charles River, UK) were crossed with male mice of the DBA strain (obtained from Charles River, UK) and treated i.p. with 3-ethyl-5-[5-(4-ethylpiperazin-1-ylsulphonyl)-2-n-propoxyphenyl]-2-(pyridin-2-yl)methyl-2,6-dihydro-7H-pyrazolo[4,3-d]pyrimidin-7-one at the rate of either 1 mg/kg or 3′mg/kg on days 1 to 8 of gestation. The mice were euthanised on day 12 of gestation and the numbers of viable and non-viable embryos were determined relative to corresponding control mice.
Female mice of the CBA strain (obtained from Charles River, UK) were crossed with male mice of the DBA strain (obtained from Charles River, UK) and treated i.p. with 3-ethyl-5-[5-(4-ethylpiperazin-1-ylsulphonyl)-2-n-propoxyphenyl]-2-(pyridin-2-yl)methyl-2,6-dihydro-7H-pyrazolo[4,3-d]pyrimidin-7-one at the rate of 1 mg/kg on days 1 to 4 or 4 to 8 of gestation. The mice were euthanised on day 12 of gestation and the numbers of viable and non-viable embryos were determined relative to corresponding control mice.

Series [2] relates to pregnant rats. The series is described as follows: Birthweights of rat pups after s.c. dosing of pregnant rats throughout gestation. It counts as in vivo. As to conditions: for embryonic/foetal growth and birthweight (in words, FIG. 1): s.c. daily 0.3, 1 and 5 mg/kg, gestation days 1-21, pregnant rats; for % increase (birthweights of rat pups): pregnant rats n=10. The protocol:
To evaluate the effects of cGMP PDE V inhibition on embryonic and foetal growth, 3-ethyl-5-[5-(4-ethylpiperazin-1-ylsulphonyl)-2-n-propoxyphenyl]-2-(pyridin-2-yl)methyl-2,6-dihydro-7H-pyrazolo[4,3-d]pyrimidin- 7-one was administered s.c. daily in an aqueous micelle formulation at the rate of 0.3, 1 and 5 mg/kg to pregnant rats. The results are illustrated in FIG. 1.
A comparative experiment using a similar protocol was carried out using (A) 3-ethyl-5-[5-(4-ethylpiperazin-1-ylsulphonyl)-2-n-propoxyphenyl]-2-(pyridin-2-yl)methyl-2,6-dihydro-7H-pyrazolo[4,3-d]pyrimidin-7-one and the Lilly-ICOS PDE V inhibitor (B) CILIAS/IC-351. The compounds were administered throughout gestation subcutaneously to pregnant rats (n=10) and the birthweights of their corresponding rat pups were measured.

For series [3], the system named is Friesian cross heifers. The series is described as follows: Intra-vaginal dosing of Friesian cross heifers: plasma progesterone and uterine horn histology. It is filed as in vivo, cattle. Conditions: intra-vaginally twice daily, 30 days, uterine horn cross-sections. The protocol: Twenty-seven (27) female Friesian cross heifers, approximately 24 months of age were allocated randomly to three treatment groups control, 50 mg and 250 mg of the PDE V inhibitor administered intra-vaginally twice daily. Oestrous was synchronised using two intramuscular injections of PGF2 alpha (Lutalyse™) administered 11 days apart. The PDE V inhibitor was administered intra-vaginally twice daily from day −3 of oestrus until day 6 of the following oestrus (30 days in total). Blood samples were collected daily, plasma was prepared as soon as possible and stored at −20 DEG C. and then analysed for progesterone. At the completion of the study (ie day 6 of the second oestrous period) the cattle were euthanised and the reproductive tract collected. A cross section of the left and right horns of each uterus was collected and stored in 10% Formalin and then analysed histologically.

In series [4] the test system is Mini-pigs. The series is described as follows: Model of uterine blood flow and mean arterial blood pressure in mini-pigs. It is filed as in vivo. Conditions: intravenous. From the text: A model of uterine blood flow was established to assess the effects of PDE V inhibition on uterine flow and mean arterial blood pressure (MAP). Mini-pigs weighing approximately 30 kg were modified surgically. As a means of quantifying real time uterine blood flow a Transoinc blood flow probe was placed around either the left or right uterine artery. Catheters were inserted into a external jugular vein and a carotid artery for blood sampling/administration of compound and measurement of mean arterial blood pressure (MAP) respectively. Test compound was administered intravenously either during oestrous or the luteal phase of the reproductive cycle and the effects of PDE V inhibition on uterine blood flow and MAP were measured. The Y-axis for the two left hand bars is uterine blood flow (ml/min.), and for the two right hand bars is MAP (mmHg).

Series [5] relates to patients undergoing in vitro fertilisation (IVF) with prior poor endometrial response. As to conditions: Hum. Reprod., 2000, 15(4), 806-809; cited from earlier work.
Where [6] appears, read: 0.3 mg/kg s.c. throughout gestation.
Setting [7] is: 1 mg/kg s.c. throughout gestation.
[8] abbreviates: 5 mg/kg s.c. throughout gestation.

For `CCCOc1ccc(S(=O)(=O)N2CCN(CC)CC2)cc1-c1nc2c(CC)n(Cc3ccccn3)nc2c(=O)[nH]1` [3-ethyl-5-[5-(4-ethylpiperazin-1-ylsulphonyl)-2-n-propoxyphenyl]-2-(pyridin-2-yl)methyl-2,6-dihydro-7H-pyrazolo[4,3-d]pyrimidin-7-one], in series [1] (days 1-4 or 4-8 of gestation), the “rate of embryo survival (in words)” value is “improved the rate of embryo survival in both cases”. The “rate of embryo survival and maintenance of pregnancy (in words)” value in series [1] (days 1 to 8 of gestation, CBA×DBA mice) is “improves significantly the rate of embryo survival and the maintenance of pregnancy”. Also, the “embryonic/foetal growth and birthweight (in words, FIG. 1)” value in series [2] was “promotes embryonic and/or foetal growth and consequently increases birthweight”.

Turning to `CCCOc1ccc(S(=O)(=O)N2CCN(CC)CC2)cc1-c1nc2c(CC)n(Cc3ccccn3)nc2c(=O)[nH]1` [A, 3-ethyl-5-[5-(4-ethylpiperazin-1-ylsulphonyl)-2-n-propoxyphenyl]-2-(pyridin-2-yl)methyl-2,6-dihydro-7H-pyrazolo[4,3-d]pyrimidin-7-one], the “% Embryo Survival” value in series [1] (1 mg/kg i.p. daily, days 1-4 of gestation, control 54) worked out at 81%; in series [1] (1 mg/kg i.p. daily, days 1-8 of gestation, control 51), 90%; in series [1] (1 mg/kg i.p. daily, days 4-8 of gestation, control 54), 70%; in series [1] (3 mg/kg i.p. daily, days 1-8 of gestation, control 51), 84%. Also, the “endometrial epithelial thickness relative to control (FIG. 5)” value in series [3] is recorded as “increases endometrial epithelial thickness relative to control animals”. For the same molecule, the “mean arterial blood pressure (MAP) (FIG. 2)” value in series [4] is reported as “No significant effect on mean arterial blood pressure”. In series [4], the “uterine blood flow relative to control (FIG. 2)” value is recorded as “improves significantly uterine blood relative to control animals”. Besides, the “% increase (birthweights of rat pups)” value in series [2] (setting [6]) is recorded as 2%; in series [2] (setting [7]), 6%; in series [2] (setting [8]), 10%; in series [2] (10 mg/kg s.c. throughout gestation), 12%. For the same molecule, the “comparison of effectiveness on birth weights of rat pups” value in series [2] (A versus B, s.c. throughout gestation) is recorded as “more effective than compound B”. For the same molecule, the “embryonic/foetal growth and birthweight (in words, FIG. 1)” value in series [2] (listed as 3-ethyl-5-(5-(4-ethylpiperazin-1-ylsulphonyl)-2-n-propoxyphenyl)-2-(pyridin-2-yl)) is “increases birthweights of rat puts”.

For the molecule `CN1CC(=O)N2[C@H](c3ccc4c(c3)OCO4)c3[nH]c4ccccc4c3C[C@@H]2C1=O` [B, (6R, 12aR)-2,3,6,7,12,12a-hexahydro-2-methyl-6-(3,4-methylenedioxyphenyl)-pyrazino[2′,1′:6,1]pyrido[3,4-b]indole-1,4-dione, reference compound], the “% increase (birthweights of rat pups)” value in series [2] (setting [6]) is recorded as 0%; in series [2] (setting [7]), 1%; in series [2] (setting [8]), 5%.

Take `CCCc1nn(C)c2c(=O)[nH]c(-c3cc(S(=O)(=O)N4CCN(C)CC4)ccc3OCC)nc12` [sildenafil, 5-[2-ethoxy-5-(4-methyl-1-piperazinylsulphonyl)phenyl]-1-methyl-3-n-propyl-1,6-dihydro-7H-pyrazolo[4,3-d]pyrimidin-7-one]: the “uterine artery blood flow and endometrial development” value in series [5] was “may be effective for improving uterine artery blood flow and endometrial development”.

Values taken from patent US6548508B2, “Use of PDE V inhibitors for improved fecundity in mammals” (Pfizer, Inc., priority 2000, dated 2003).
